According to the supplement of paper PMC10627819:

Tests used:
S. aureus Newman = test: Bliss interaction score (quartile over a dose matrix) (fitness difference); higher = more antagonism (negative = synergy)
Summary of the method: (§1)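 At entry into stationary phase, OD595 was recorded and divided by the robust mean of the no-drug wells on that plate, with any value above 1 set to 1. This gives the fitness measure used throughout. Single-drug fitness was inferred from combination data, and the Bliss score, observed minus product-expected fitness, is shown as quartiles across technical, biological and donor/recipient replicates.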

B. subtilis 168 [1] = test: as above
Summary of the method: as §1

S. aureus DSM 20231 = test: as above
Summary of the method: as §1

S. pneumoniae D39V [2] = test: as above
Summary of the method: as §1

B. subtilis 168 [3] = test: fitness (endpoint OD595 vs no drug) (fraction); higher = more growth
Summary of the method: (§2)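 Volumes were 30 µl per well, or 55 µl for S. pneumoniae, in 384-well plates inoculated at OD595 0.01. Media were TSB, LB Lennox or CY at 37 °C, and OD595 was read every 30 min for 14 h with first-reading background subtraction. Fitness is the ratio of optical density at stationary-phase entry to the robust mean of no-drug controls. That ratio is capped at 1.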

S. pneumoniae D39V [4] = test: as above
Summary of the method: as §2
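Throughout, for Bliss interaction score (quartile over a dose matrix): first quartile when negative (synergy) and third quartile when positive (antagonism).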

C[C@H]1COc2c(N3CCN(C)CC3)c(F)cc3c(=O)c(C(=O)O)cn1c23 [Levofloxacin] + CCC(C)C1C(=O)NC(=C)C(=O)NC(C(=O)NC(CSCC(C(=O)N1)NC(=O)/C(=C/C)/NC(=O)C(C(C)CC)N)C(=O)NC2C(SCC(NC(=O)CNC(=O)C3CCCN3C2=O)C(=O)NC(CCCCN)C(=O)NC4C(SCC(NC(=O)CNC(=O)C(NC(=O)C(NC(=O)C(NC(=O)CNC4=O)C)CC(C)C)CCSC)C(=O)NC(CC(=O)N)C(=O)NC(CCSC)C(=O)NC(CCCCN)C(=O)NC5C(SCC6C(=O)NC(C(=O)NC(CSC(C(C(=O)N6)NC(=O)C(NC5=O)C)C)C(=O)NC(CO)C(=O)NC(C(C)CC)C(=O)NC(CC7=CN=CN7)C(=O)NC(C(C)C)C(=O)NC(=C)C(=O)NC(CCCCN)C(=O)O)CC8=CN=CN8)C)C)C)CC(C)C [Nisin]
main component drawn
Conditions	Bliss interaction score
B. subtilis 168 [1]	0.0523
S. aureus DSM 20231	0.0616
S. aureus Newman	-0.0668
S. pneumoniae D39V [2]	-0.0976

fitness, B. subtilis 168 [3], one replicate, main component drawn
Conditions	first compound 0.001 µg/mL	first compound 0.002 µg/mL	first compound 0.0039 µg/mL	first compound 0.0078 µg/mL	first compound 0.0312 µg/mL	first compound 0.0625 µg/mL	first compound 0.125 µg/mL
partner 0.5 µg/mL	0.923	0.904	0.898	–	0.0428	0.0426	0.0499
partner 1 µg/mL	0.88	0.871	0.882	–	0.032	0.0609	0.0546
partner 1.25 µg/mL	–	0.883	0.888	0.868	–	–	–
partner 1.6 µg/mL	–	0.744	0.734	0.701	–	–	–
partner 2 µg/mL	0.778	0.76	0.747	–	0.0482	0.0558	0.0347
partner 2.5 µg/mL	–	0.696	0.319	0.598	–	–	–
partner 3.2 µg/mL	–	0.0329	0.0154	0.0243	–	–	–
partner 4 µg/mL	–	–	–	–	0.0425	0.0381	0.0437
partner 5 µg/mL	–	0.0276	0.088	0.112	–	–	–
partner 6.4 µg/mL	–	0.0319	0.0555	0.0288	–	–	–
partner 8 µg/mL	–	–	–	–	0.0314	0.0402	0.0327
partner 16 µg/mL	–	–	–	–	0.0291	0.0222	0.0121

S. pneumoniae D39V [4], main component drawn
Conditions	fitness
first compound 0.1725 µg/mL, partner 1.6 µg/mL	0.157
first compound 0.1725 µg/mL, partner 3.2 µg/mL	0.0386
first compound 0.1725 µg/mL, partner 6.4 µg/mL	0.0067
first compound 0.2 µg/mL, partner 0.4275 µg/mL	0.906
first compound 0.2 µg/mL, partner 0.855 µg/mL	0.956
first compound 0.2 µg/mL, partner 1.71 µg/mL	0.0809
first compound 0.345 µg/mL, partner 3.2 µg/mL	0.0036
first compound 0.345 µg/mL, partner 6.4 µg/mL	0.0023
first compound 0.4 µg/mL, partner 0.4275 µg/mL	0.844
first compound 0.4 µg/mL, partner 1.71 µg/mL	0.0708
first compound 0.69 µg/mL, partner 1.6 µg/mL	0.0158
first compound 0.69 µg/mL, partner 3.2 µg/mL	0.0153
first compound 0.69 µg/mL, partner 6.4 µg/mL	0.0526
first compound 0.8 µg/mL, partner 0.4275 µg/mL	0.298
first compound 0.8 µg/mL, partner 0.855 µg/mL	0.102
first compound 0.8 µg/mL, partner 1.71 µg/mL	0.0697

C[C@H]1COc2c(N3CCN(C)CC3)c(F)cc3c(=O)c(C(=O)O)cn1c23 [Levofloxacin] + CCC[C@@H]1C[C@@H](C(=O)N[C@@H]([C@H]2O[C@H](SC)[C@H](O)[C@@H](O)[C@H]2O)[C@@H](C)O)N(C)C1 [Lincomycin]
Conditions	Bliss interaction score
B. subtilis 168 [1]	0.0149
S. aureus DSM 20231	0.169
S. aureus Newman	0.0423
S. pneumoniae D39V [2]	0.104

fitness, B. subtilis 168 [3], one replicate
Conditions	partner 0.1 µg/mL	partner 0.2 µg/mL	partner 0.4 µg/mL	partner 0.8 µg/mL	partner 1.6 µg/mL
first compound 0.001 µg/mL	–	–	0.789	0.889	0.849
first compound 0.002 µg/mL	≥ 1	0.968	–	0.797	0.767
first compound 0.0039 µg/mL	≥ 1	0.975	–	0.743	0.806
first compound 0.0078 µg/mL	0.997	0.961	0.945	–	–

Conditions	fitness
B. subtilis 168 [3], first compound 0.002 µg/mL, partner 0.4 µg/mL	0.897
B. subtilis 168 [3], first compound 0.0039 µg/mL, partner 0.4 µg/mL	0.888
B. subtilis 168 [3], first compound 0.0312 µg/mL, partner 0.1 µg/mL	0.0367
B. subtilis 168 [3], first compound 0.0312 µg/mL, partner 0.2 µg/mL	0.0349
B. subtilis 168 [3], first compound 0.0312 µg/mL, partner 0.4 µg/mL	0.0483
B. subtilis 168 [3], first compound 0.0625 µg/mL, partner 0.1 µg/mL	0.0423
B. subtilis 168 [3], first compound 0.0625 µg/mL, partner 0.2 µg/mL	0.0292
B. subtilis 168 [3], first compound 0.0625 µg/mL, partner 0.4 µg/mL	0.0493
B. subtilis 168 [3], first compound 0.125 µg/mL, partner 0.1 µg/mL	0.0441
B. subtilis 168 [3], first compound 0.125 µg/mL, partner 0.2 µg/mL	0.0449
B. subtilis 168 [3], first compound 0.125 µg/mL, partner 0.4 µg/mL	0.0489
S. pneumoniae D39V [4], first compound 0.1725 µg/mL, partner 0.2 µg/mL	0.768
S. pneumoniae D39V [4], first compound 0.1725 µg/mL, partner 0.4 µg/mL	0.7
S. pneumoniae D39V [4], first compound 0.1725 µg/mL, partner 0.8 µg/mL	0.266
S. pneumoniae D39V [4], first compound 0.2 µg/mL, partner 0.215 µg/mL	0.807
S. pneumoniae D39V [4], first compound 0.2 µg/mL, partner 0.43 µg/mL	0.77
S. pneumoniae D39V [4], first compound 0.2 µg/mL, partner 0.86 µg/mL	0.5
S. pneumoniae D39V [4], first compound 0.345 µg/mL, partner 0.2 µg/mL	0.726
S. pneumoniae D39V [4], first compound 0.345 µg/mL, partner 0.4 µg/mL	0.639
S. pneumoniae D39V [4], first compound 0.345 µg/mL, partner 0.8 µg/mL	0.201
S. pneumoniae D39V [4], first compound 0.4 µg/mL, partner 0.215 µg/mL	0.754
S. pneumoniae D39V [4], first compound 0.4 µg/mL, partner 0.43 µg/mL	0.68
S. pneumoniae D39V [4], first compound 0.4 µg/mL, partner 0.86 µg/mL	0.379
S. pneumoniae D39V [4], first compound 0.69 µg/mL, partner 0.2 µg/mL	0.542
S. pneumoniae D39V [4], first compound 0.69 µg/mL, partner 0.4 µg/mL	0.503
S. pneumoniae D39V [4], first compound 0.69 µg/mL, partner 0.8 µg/mL	0.18
S. pneumoniae D39V [4], first compound 0.8 µg/mL, partner 0.215 µg/mL	0.691
S. pneumoniae D39V [4], first compound 0.8 µg/mL, partner 0.43 µg/mL	0.596
S. pneumoniae D39V [4], first compound 0.8 µg/mL, partner 0.86 µg/mL	0.272

C[C@H]1COc2c(N3CCN(C)CC3)c(F)cc3c(=O)c(C(=O)O)cn1c23 [Levofloxacin] + CCN(CC)CCOC(=O)c1ccc(N)cc1 [Procaine]
Conditions	Bliss interaction score
B. subtilis 168 [1]	-0.0156
S. aureus DSM 20231	-0.108
S. aureus Newman	0.108
S. pneumoniae D39V [2]	0.053

fitness, one replicate
Conditions	first compound 0.001 µg/mL	first compound 0.002 µg/mL	first compound 0.0039 µg/mL	first compound 0.2 µg/mL	first compound 0.4 µg/mL	first compound 0.8 µg/mL
B. subtilis 168 [3], partner 85.5 µg/mL	0.882	0.83	0.861	–	–	–
B. subtilis 168 [3], partner 171 µg/mL	0.923	0.824	0.869	–	–	–
B. subtilis 168 [3], partner 342 µg/mL	0.912	0.849	0.872	–	–	–
S. pneumoniae D39V [4], partner 85.5 µg/mL	–	–	–	0.924	0.815	0.372
S. pneumoniae D39V [4], partner 171 µg/mL	–	–	–	≥ 1	0.853	0.49
S. pneumoniae D39V [4], partner 342 µg/mL	–	–	–	0.923	0.86	0.501

fitness
Conditions	first compound 0.0312 µg/mL	first compound 0.0625 µg/mL	first compound 0.125 µg/mL	first compound 0.1725 µg/mL	first compound 0.345 µg/mL	first compound 0.69 µg/mL
B. subtilis 168 [3], partner 85.5 µg/mL	0.0534	0.0358	0.0491	–	–	–
B. subtilis 168 [3], partner 171 µg/mL	0.0369	0.0387	0.0458	–	–	–
B. subtilis 168 [3], partner 342 µg/mL	0.0441	0.0408	0.0398	–	–	–
S. pneumoniae D39V [4], partner 85.5 µg/mL	–	–	–	0.937	0.878	0.602
S. pneumoniae D39V [4], partner 171 µg/mL	–	–	–	0.946	0.87	0.62
S. pneumoniae D39V [4], partner 342 µg/mL	–	–	–	0.918	0.877	0.625
